Assay results as given in article PMC11477289, “Low-Basicity 5-HT6 Receptor Ligands from the Group of Cyclic Arylguanidine Derivatives and Their Antiproliferative Activity Evaluation” (International Journal of Molecular Sciences, 2024).

Assay: PAMPA permeability test
Format: in vitro ADME
Conditions: PBS pH 7.4, 5 h, room temperature
Procedure: This test allows the determination of the compound’s passive diffusion through biological membranes.
Precoated PAMPA Plate System Gentest was obtained from Corning (Tewksbury, MA, USA). Test compounds and caffeine solutions (200 µM) were prepared in a PBS buffer (pH = 7.4) and then added to the PAMPA plate. The plate was incubated at room temperature for 5 h without agitation. Then, 150 µL was aspirated from both acceptor (A) and donor (D) wells and then diluted with a 150 µL internal standard (IS) solution. The concentrations of the tested compounds in wells A and D were estimated using an LC/MS Waters ACQUITY™ TQD system with a TQ detector (Waters, Milford, CT, USA). The values of Pe were estimated according to the exact formulas provided by Corning and previously described in the literature.
4. Absorption – PAMPA permeability test
*Permeability coefficient. Compound is permeable if Pe≥1.5×10-6 cm/s
**CFN = caffeine, well-permeable control
UPLC of Caffeine solution in PBS (pH=7.4) after 5h of incubation: acceptor well
(above), donor well (below). IS – internal standard.
UPLC of PR 68 solution in PBS (pH=7.4) after 5h of incubation: acceptor well (above),
donor well (below). IS – internal standard. […]

SMILES: Cn1c(=O)c2c(ncn2C)n(C)c1=O [caffeine, reference compound]
- Papp at 5 h, 200 µM (PAMPA, read-out: PAMPA Pe): 8.23 ×10⁻⁶ cm/s
- PAMPA Pe: 8.23 10^−6 cm/s
